Experimental findings from ChEMBL document CHEMBL1201862, “PubChem BioAssay data set” (2004) are described below.

Molecules are shown by their SMILES.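 Five concentrations, 48 hours, 96-well plates. At the GI50, growth is halved.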 Activity calls are given as the source filed them. Cut-off read from the data, not from the text of the source: active = GI50 up to about 1.1 µM and inactive = higher.

Among the test systems are BT-549; CAKI-1; HCT-116; HCT-15; HL-60; HOP-62; M14; MDA-N; NCI-H522; SF-539; SK-MEL-2; SN12C; SW-620; T47D; TK-10; UO-31; HOP-92; OVCAR-3; SK-MEL-5.
What all share (test): NCI-60 cell line screen, 48 h

`COc1cc2c(c(OC)c1OC)-c1ccc(SC)c(=O)cc1[C@@H](O)CC2`: the GI50 in the assay on BT-549 was 0.00168 µM (active); in the assay on CAKI-1, 0.00166 µM (active); in the assay on HCT-116 it was 0.000381 µM (active); in the assay on HCT-15, 0.000605 µM; with HL-60, 0.000269 µM (active); with HOP-62, 0.000834 µM (active). The GI50 is 0.000333 µM (active) with M14; 0.000121 µM (active) with MDA-N; 0.00065 µM (active) with NCI-H522; 0.000356 µM (active) in the assay on SF-539; 0.00367 µM (active) in the assay with SK-MEL-2; 0.00265 µM (active) in the assay with SN12C. Moreover, the GI50 was 0.000333 µM (active) in the assay with SW-620, > 1 µM (active) with T47D, > 1 µM (active) with TK-10 and 0.0208 µM (active) with UO-31.
In the case of `CC(=O)Nc1ccc2c3c(cc(O)c2c1)N(C(=O)CCCC(=O)N1CC(CCl)c2c1cc(O)c1cc(NC(C)=O)ccc21)CC3CCl` (stereo not drawn), the GI50 was 0.011 µM (active) with BT-549; < 0.01 µM (active) in the assay on CAKI-1; < 0.01 µM (active) with HCT-116; 0.0773 µM with HCT-15; < 0.01 µM (active) in the assay on HL-60; < 0.01 µM (active) with HOP-62. Also, the GI50 with HOP-92 is 0.0199 µM (active); in the assay on M14, < 0.01 µM (active); in the assay on NCI-H522, < 0.01 µM (active); with OVCAR-3, 0.0111 µM (active); in the assay on SF-539, 0.0223 µM (active); in the assay on SK-MEL-2, < 0.01 µM (active). Moreover, the GI50 in the assay with SK-MEL-5 was 0.0108 µM (active); in the assay with SN12C, < 0.01 µM (active); in the assay on SW-620, 0.0392 µM (active); with T47D, < 0.01 µM (active); in the assay with TK-10, 0.022 µM (active); with UO-31, < 0.0166 µM (active).
Turning to `COc1ccc2c(c1)OCC1=C2Oc2ccccc2C1`, the GI50 is 28 µM (inactive) with BT-549; 49.7 µM (inactive) in the assay with CAKI-1; 36.6 µM (inactive) in the assay with HCT-116; 31 µM in the assay on HCT-15; 14.8 µM (inactive) in the assay with HL-60; 55.3 µM (inactive) in the assay on HOP-62. Moreover, the GI50 is 38 µM (inactive) with M14; 25 µM (inactive) in the assay on MDA-N; 22 µM (inactive) in the assay with NCI-H522; 33.6 µM (inactive) in the assay with OVCAR-3; 27.5 µM (inactive) with SF-539; 26.5 µM (inactive) in the assay on SK-MEL-2. In addition, the GI50 with SK-MEL-5 is 13.9 µM (inactive); with SN12C, 39.3 µM (inactive); in the assay on SW-620 it was 30.2 µM (inactive); in the assay on T47D it was 36.1 µM (inactive); in the assay with TK-10, 40.2 µM (inactive); in the assay with UO-31, 50.4 µM (inactive).
With `CCOC(=O)c1c(SCc2cc(=O)[nH]c(=O)[nH]2)n(-c2ccccc2)c(=S)n(-c2ccccc2)c1=O`, the GI50 with BT-549 was > 100 µM (inactive); with CAKI-1, > 100 µM (inactive); in the assay with HCT-116, > 100 µM (inactive); in the assay with HCT-15 it was over 100 µM; in the assay on HOP-62, > 100 µM (inactive); in the assay with M14 it was > 100 µM (inactive). Further, the GI50 in the assay on MDA-N, with OVCAR-3, in the assay with SF-539, in the assay with SK-MEL-2, with SK-MEL-5 and in the assay with SN12C was > 100 µM (inactive) each time. For the same molecule, the GI50 with SW-620, in the assay on T47D, in the assay on TK-10 and in the assay with UO-31 was > 100 µM (inactive) each time.
As for `CCc1ccccc1NC(=O)/C=C/c1ccccc1`, the GI50 with BT-549 was > 100 µM (inactive); in the assay with CAKI-1 it was > 100 µM (inactive); with HCT-116, > 100 µM (inactive); in the assay with HCT-15 it was over 100 µM; in the assay with HOP-62, 49 µM (inactive); in the assay with M14, > 100 µM (inactive). The GI50 in the assay with MDA-N, in the assay with NCI-H522, with OVCAR-3, in the assay on SF-539, in the assay with SK-MEL-2 and in the assay on SK-MEL-5 was > 100 µM (inactive) each time. The GI50 in the assay on SN12C, with SW-620, in the assay with T47D and in the assay with TK-10 was > 100 µM (inactive) each time.
Take `CSc1c(C#N)c(O)n(-c2ccc(Cl)cc2)c(=O)c1C(C)=O`: the GI50 in the assay with BT-549 was 90.6 µM (inactive); in the assay with CAKI-1, 18.7 µM (inactive); in the assay on HCT-116, 38.1 µM (inactive); in the assay with HCT-15, 27.3 µM; with HL-60, 18.4 µM (inactive); with M14, 89.9 µM (inactive). Further, the GI50 with MDA-N was 55.5 µM (inactive); in the assay with NCI-H522, 0.433 µM (active); in the assay with OVCAR-3, 48.3 µM (inactive); in the assay with SF-539, 32.9 µM (inactive); with SK-MEL-2, > 100 µM (inactive); with SK-MEL-5 it was 89.1 µM (inactive). The GI50 with SN12C was > 100 µM (inactive); in the assay on SW-620, 44.7 µM (inactive); in the assay on T47D it was 27.1 µM (inactive); in the assay with TK-10, 42.6 µM (inactive); with UO-31, 24.9 µM (inactive).
On to `CCOC(=O)/C(=N\OC)C(O)C(F)(F)F` (stereo not drawn), for which the GI50 with BT-549 is > 100 µM (inactive); in the assay with CAKI-1, > 100 µM (inactive); in the assay on HCT-116 it was > 100 µM (inactive); in the assay with HCT-15, over 100 µM; in the assay on HL-60, > 100 µM (inactive); with HOP-62, > 100 µM (inactive). Moreover, the GI50 with M14, in the assay on MDA-N, in the assay with NCI-H522, in the assay on SF-539, in the assay on SK-MEL-2 and in the assay on SK-MEL-5 was > 100 µM (inactive) in each case. For the same molecule, the GI50 in the assay on SN12C, in the assay on SW-620, in the assay on T47D, with TK-10 and in the assay on UO-31 was > 100 µM (inactive) in each case.
`CC(=O)O[C@H]1CCn2c3c(c(C)c21)C(=O)C(N1CC1)=C(C)C3=O`: the GI50 in the assay on BT-549 is > 10 µM (inactive); in the assay with CAKI-1, > 10 µM (inactive); in the assay with HCT-116, > 10 µM (inactive); in the assay with HCT-15, over 10 µM; in the assay with HL-60 it was > 10 µM (inactive); with HOP-62 it was 5.2 µM (inactive). Also, the GI50 with M14, in the assay on MDA-N, with NCI-H522, in the assay with OVCAR-3, with SF-539 and in the assay with SK-MEL-2 was > 10 µM (inactive) in each case. Also, the GI50 in the assay on SK-MEL-5 is 2.57 µM (inactive); in the assay with SN12C it was 7.43 µM (inactive); with SW-620 it was > 10 µM (inactive); in the assay with T47D it was > 10 µM (inactive); with TK-10 it was > 10 µM (inactive).
For the molecule `NS(=O)(=O)c1nnc(NC(=O)N(c2ccccc2)c2ccccc2)s1`, the GI50 with BT-549 was 16.1 µM (inactive); with CAKI-1, 28.6 µM (inactive); in the assay on HCT-116 it was 29.4 µM (inactive); in the assay with HCT-15, 22.5 µM; with HL-60, 16.3 µM (inactive); in the assay with HOP-62 it was 27.2 µM (inactive). Moreover, the GI50 with HOP-92 was 19.1 µM (inactive); in the assay on M14, 15.2 µM (inactive); in the assay on MDA-N it was 25.4 µM (inactive); in the assay on NCI-H522, 16.8 µM (inactive); in the assay on OVCAR-3, 19.5 µM (inactive); with SF-539, 17.6 µM (inactive). Further, the GI50 was 31.3 µM (inactive) with SK-MEL-2; 22.7 µM (inactive) in the assay on SK-MEL-5; 15.8 µM (inactive) in the assay with SN12C; 29.9 µM (inactive) with SW-620; 41.2 µM (inactive) with TK-10; 24 µM (inactive) with UO-31.
